Source: patent publication US20070243180A1, “Composition Containing Reduced Coenzyme Q” (priority 2003, published 2007)

How the values were obtained:
[1] = Stability testing of reduced coenzyme Q10 against autooxidation on storage in air, protected against light; assay type: physicochemical; settings: in the presence of air, at 4 weeks after starting storage, HPLC
Method: In the examples, a reduced coenzyme Q concentration and an oxidized coenzyme Q concentration were determined by the following HPLC analysis. Column; SYMMETRY C18 (product of Waters Corporation), 250 mm (length), 4.6 mm (inside diameter), mobile phase; C2H5OH:CH3OH=4:3 (v:v), detection wavelength; 210 nm, flow rate; 1 ml/min, retention time for a reduced coenzyme Q10; 9.1 min, retention time for an oxidized coenzyme Q10; 13.3 min. Reduced coenzyme Q10 bulk powder (Q-OH bulk powder) containing 2% of oxidized coenzyme Q10 and the powdery compositions I to IV respectively obtained in Examples 1 to 4 were subjected to stability testing in the following manner. Thus, each composition (test sample) was placed in a microtube and stored, in a state protected against light, at 23° C. or 40° C. in the presence of air. After 1, 2 or 4 weeks of storage, 25 mg of each sample was sampled and dissolved in ethanol, the concentrations of oxidized coenzyme Q10 and reduced coenzyme Q10 were measured by HPLC and the percentage of reduced coenzyme Q10 in total coenzyme Q10 as contained in the composition (test sample) was determined.

[2] = Solubility testing in water; assay type: physicochemical; settings: 1 g in 100 ml of water, stirred at 5,000 rpm for 30 seconds, observed after 1 hour of standing
Method: Coenzyme Q10 bulk powder (Q-OH bulk powder) containing 98% of reduced coenzyme Q10 and the powdery compositions obtained in Examples 1 to 4 were subjected to solubility testing in the following manner. Thus, 1 g of each composition (test sample) was added to 100 ml of water, and the mixture was stirred at 5,000 rpm for 30 seconds using a mixer and then allowed to stand.

## COc1c(O)c(C)c(C/C=C(\C)CC/C=C(\C)CC/C=C(\C)CC/C=C(\C)CC/C=C(\C)CC/C=C(\C)CC/C=C(\C)CC/C=C(\C)CC/C=C(\C)CCC=C(C)C)c(O)c1OC [reduced coenzyme Q10]
[1]; stored at 23° C.
  residual reduced coenzyme Q10 percentage relative to total coenzyme Q10 contained in the composition: 41%
[1]; stored at 40° C.
  residual reduced coenzyme Q10 percentage relative to total coenzyme Q10 contained in the composition: 11%
[2]
  Solubility in water: Insoluble
[2]; listed as Coenzyme Q10 bulk powder (Q-OH bulk powder)
  Solubility in water: insoluble, forming orange-colored oil drops floating on the water
